Experimental data reported in publication PMC3929664, “A Panel of Diverse Assays to Interrogate the Interaction between Glucokinase and Glucokinase Regulatory Protein, Two Vital Proteins in Human Disease” (PLoS ONE, 2014).
Structures can show the parent of a compound that is named as a salt. One block for each compound: values may come before it.

Target: T1, GCK enzymatic reaction inhibited by GKRP (recombinant human GCK and GKRP) (Homo sapiens, UniProt P35557+Q14397)
T1 construct: made in house
T1 sequence (P35557 1-465): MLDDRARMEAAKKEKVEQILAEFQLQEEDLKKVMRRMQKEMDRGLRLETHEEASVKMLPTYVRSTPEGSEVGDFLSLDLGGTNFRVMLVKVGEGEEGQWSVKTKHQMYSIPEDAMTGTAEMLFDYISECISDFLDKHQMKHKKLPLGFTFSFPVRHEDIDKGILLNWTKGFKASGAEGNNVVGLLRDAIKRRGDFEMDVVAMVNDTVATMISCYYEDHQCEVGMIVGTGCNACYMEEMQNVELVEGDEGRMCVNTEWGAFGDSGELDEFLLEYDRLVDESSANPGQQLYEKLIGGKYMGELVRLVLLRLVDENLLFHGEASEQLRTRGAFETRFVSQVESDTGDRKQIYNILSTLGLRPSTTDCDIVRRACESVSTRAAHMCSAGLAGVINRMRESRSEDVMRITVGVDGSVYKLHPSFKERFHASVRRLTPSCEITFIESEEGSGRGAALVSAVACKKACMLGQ
T1 sequence (Q14397 1-625): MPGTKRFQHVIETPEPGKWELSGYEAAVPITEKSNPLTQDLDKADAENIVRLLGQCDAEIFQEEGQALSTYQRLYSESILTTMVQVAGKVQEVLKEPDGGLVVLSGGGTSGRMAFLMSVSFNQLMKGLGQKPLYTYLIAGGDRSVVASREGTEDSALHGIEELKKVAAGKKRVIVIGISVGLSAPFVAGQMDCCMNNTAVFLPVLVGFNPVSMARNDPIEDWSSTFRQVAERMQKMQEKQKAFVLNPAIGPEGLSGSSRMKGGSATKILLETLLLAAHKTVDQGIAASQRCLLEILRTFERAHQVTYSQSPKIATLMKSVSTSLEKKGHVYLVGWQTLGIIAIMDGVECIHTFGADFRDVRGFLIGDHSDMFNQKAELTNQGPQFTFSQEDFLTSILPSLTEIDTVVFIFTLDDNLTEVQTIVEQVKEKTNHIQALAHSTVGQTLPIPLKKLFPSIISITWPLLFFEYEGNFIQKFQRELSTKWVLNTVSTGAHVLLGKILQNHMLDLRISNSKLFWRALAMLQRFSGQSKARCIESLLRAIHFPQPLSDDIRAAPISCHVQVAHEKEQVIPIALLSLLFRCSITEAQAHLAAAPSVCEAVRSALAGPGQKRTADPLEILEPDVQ
Assay: Diaphorase-coupled kinetic assay (G6PDH/diaphorase dual-coupled)
Type: biochemical
Details: 10 nM GCK, 10 nM GKRP; for LOPAC1280 screen outcome: 1.5 µM S6P
Method: The glucose 6-phosphate dehydrogenase (G6PDH)-coupled kinetic assay described previously was adapted for high-throughput screening by dispensing 2 µl diaphorase-coupled substrate assay buffer (pH 7.1) to give final reaction conditions of 25 mM HEPES, 25 mM KCl, 2 mM MgCl2, 1.4 mM 2-mercaptoethanol, 0.025% BSA, 0.01% Tween-20, 0.15 mM NADP^+, 5 mM glucose, 0.4 mM ATP, 4 U/ml G6PDH, and 0.1 mM resazurin (all Sigma-Aldrich, except ATP which was from Promega) into black 1536-well medium binding plates (Greiner Bio-One) using a BioRAPTR. The reaction was then initiated by addition of 2 µl of diaphorase-coupled enzyme assay buffer containing indicated concentrations of GST-GCK, FLAG-GKRP, and diaphorase (Sigma-Aldrich; final concentration 0.1 mg/ml). Reaction progress was followed by quantitation of the fluorescent product resorufin generated from resazurin with excitation at 525 nm and emission at 590 nm using a ViewLux Microplate Imager. Plates were read every minute for 30 minutes. […] For the LOPAC^1280 library screen, column 1 was all components with DMSO (maximum signal) and column 3 was no GCK with DMSO (minimum signal). These two control columns were used for data normalization. The final HTS protocol is in Table S2, and the data have been deposited in PubChem (AID 743205).
S6P, F1P, and glucose were dissolved in water; GKAs were dissolved in DMSO.
The G6PDH-coupled kinetic assay system described in [24] was utilized as a basis for developing a high-throughput screening assay to detect G6P generation. Because NADPH (excitation 340 nm, emission 450 nm) has spectral overlap with many fluorescent small molecule compounds, NADPH generation by G6PDH was coupled to NADPH-dependent reduction of resazurin to the fluorescent resorufin (excitation 525 nm, emission 590 nm) catalyzed by diaphorase ( Figure 1B ). Initial assay validation was carried out over a range (0–20 nM) of GCK and GKRP concentrations ( Figure 4A ). Additionally, seven different control mixes of NADP^+ and NADPH were tested in duplicate to generate a standard curve. The total NADP^+/NADPH concentration was 0.15 mM for all controls, with 0, 5, 10, 30, 50, 70, or 100% NADPH. This allowed estimation of the amount of NADP^+ that had been converted by the GCK reaction throughout the time-course ( Figure 4A , dashed lines). The assay is sensitive to very low levels of conversion.
The reaction rate for both 10 nM GCK alone and for 10 nM GCK with 10 nM GKRP was linear for the entire 30-minute time-course. The combination of linearity and the relatively low percent conversion of NADP^+ led us to select t = 10 minutes as providing an appropriate signal window for all future analyses. […] The IC80 value for S6P was calculated as 1.5 µM. Accordingly, this S6P concentration was utilized for all remaining diaphorase-coupled experiments.

SMILES: O=C(O)C1=CC(=C(c2ccc(O)c(C(=O)O)c2)c2ccc(O)c(C(=O)O)c2)C=CC1=O [ATA, aurintricarboxylic acid]
LOPAC1280 screen outcome: inhibitors of the GCK-GKRP interaction

EC50 (t = 10 minutes, mean ± SD): 4000 ± 500 nM
SMILES: O=C(COP(=O)(O)O)[C@@H](O)[C@H](O)[C@H](O)CO [F1P, fructose 1-phosphate]

IC80: 1500 nM | IC50 (t = 10 minutes, mean ± SD): 400 ± 40 nM
SMILES: O=P(O)(O)OC[C@@H](O)[C@@H](O)[C@H](O)[C@@H](O)CO [S6P, sorbitol 6-phosphate]

LOPAC1280 screen outcome: inhibitors of the GCK-GKRP interaction
SMILES: Cc1ccc(C(=O)Nc2ccc(S(=O)(=O)O)c3cc(S(=O)(=O)O)cc(S(=O)(=O)O)c23)cc1NC(=O)c1cccc(NC(=O)Nc2cccc(C(=O)Nc3cc(C(=O)Nc4ccc(S(=O)(=O)O)c5cc(S(=O)(=O)O)cc(S(=O)(=O)O)c45)ccc3C)c2)c1 [suramin sodium salt]
